From paper PMC12802110, “Biochemical characterization of the full-length isoform of soluble adenylyl cyclase” (The Journal of Biological Chemistry, 2025)
Like-named read-outs stand apart in the source and are kept apart here. One block for each molecule: values may come before it.

Legend:
[1] = test system: mouse and human sACfl and sACt; assay: In vitro adenylyl cyclase activity assay, one result stated for all four sAC proteins; assay type: biochemical; conditions: for inhibition of cyclase activity at 10 mM: 10 mM test substance
mouse sACfl = molecular target: T1, mouse sACfl (Mus musculus, UniProt Q8C0T9); assay: In vitro adenylyl cyclase activity assay (two-column method), endogenous mouse sACfl (FLAG); assay type: biochemical; conditions: for EC50: 2 mM ATP
T1 construct: Schematic of full-length (sACfl) and truncated (sACt) sAC isoforms; from tissue; host or cells: testes of homozygous double knock-in mice (FLAG pulldown, eluted with 3xFLAG peptide)
T1 sequence (Q8C0T9 whole entry, the tested form may be a part, canonical isoform): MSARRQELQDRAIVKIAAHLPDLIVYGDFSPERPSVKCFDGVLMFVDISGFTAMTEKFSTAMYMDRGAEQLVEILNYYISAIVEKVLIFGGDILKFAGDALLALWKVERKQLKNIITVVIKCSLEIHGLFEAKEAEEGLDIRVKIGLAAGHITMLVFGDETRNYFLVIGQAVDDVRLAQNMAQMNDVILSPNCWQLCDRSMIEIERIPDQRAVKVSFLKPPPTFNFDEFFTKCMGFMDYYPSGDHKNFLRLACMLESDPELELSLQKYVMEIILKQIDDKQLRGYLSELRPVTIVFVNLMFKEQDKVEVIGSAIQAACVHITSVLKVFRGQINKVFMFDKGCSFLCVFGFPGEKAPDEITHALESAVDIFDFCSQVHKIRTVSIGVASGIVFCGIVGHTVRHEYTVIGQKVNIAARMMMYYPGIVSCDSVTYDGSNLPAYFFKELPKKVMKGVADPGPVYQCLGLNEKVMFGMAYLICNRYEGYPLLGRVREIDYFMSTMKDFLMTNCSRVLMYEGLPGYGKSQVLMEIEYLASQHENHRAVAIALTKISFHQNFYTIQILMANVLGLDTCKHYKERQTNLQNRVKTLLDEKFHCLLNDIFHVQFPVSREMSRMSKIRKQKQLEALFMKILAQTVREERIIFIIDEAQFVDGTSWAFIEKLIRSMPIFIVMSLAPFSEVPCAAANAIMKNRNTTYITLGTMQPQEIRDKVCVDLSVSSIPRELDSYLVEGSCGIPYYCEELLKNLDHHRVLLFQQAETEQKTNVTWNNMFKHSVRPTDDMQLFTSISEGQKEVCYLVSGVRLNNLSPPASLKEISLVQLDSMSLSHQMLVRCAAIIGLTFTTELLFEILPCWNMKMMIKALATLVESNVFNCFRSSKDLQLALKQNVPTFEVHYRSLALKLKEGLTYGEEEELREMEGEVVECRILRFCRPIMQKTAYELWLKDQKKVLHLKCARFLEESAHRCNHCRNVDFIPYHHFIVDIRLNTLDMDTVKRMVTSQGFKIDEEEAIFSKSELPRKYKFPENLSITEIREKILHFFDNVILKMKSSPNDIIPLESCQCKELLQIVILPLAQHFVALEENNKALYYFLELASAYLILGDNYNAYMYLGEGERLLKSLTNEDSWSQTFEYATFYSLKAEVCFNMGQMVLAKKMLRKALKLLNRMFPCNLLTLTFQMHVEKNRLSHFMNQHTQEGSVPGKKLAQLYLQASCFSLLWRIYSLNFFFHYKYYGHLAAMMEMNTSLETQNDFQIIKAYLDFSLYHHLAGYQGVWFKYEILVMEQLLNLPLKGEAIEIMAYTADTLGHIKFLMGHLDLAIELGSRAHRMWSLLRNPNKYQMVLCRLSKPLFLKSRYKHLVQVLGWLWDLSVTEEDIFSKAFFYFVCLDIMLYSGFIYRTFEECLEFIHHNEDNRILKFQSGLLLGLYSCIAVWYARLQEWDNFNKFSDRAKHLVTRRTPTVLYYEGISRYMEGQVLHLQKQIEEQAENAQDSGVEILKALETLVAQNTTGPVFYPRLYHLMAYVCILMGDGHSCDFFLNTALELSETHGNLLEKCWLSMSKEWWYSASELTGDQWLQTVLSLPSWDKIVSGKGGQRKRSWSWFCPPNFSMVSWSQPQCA
Description: (§1) […]. To determine specific activities of endogenous mouse proteins, sACfl and sACt were quantitated by Western blot. For ATP kinetics, representative experiments are shown with SEM determined from normalized data.

mouse sACt = molecular target: T2, mouse sACt (Mus musculus, UniProt Q8C0T9); assay: In vitro adenylyl cyclase activity assay (two-column method), endogenous mouse sACt (Strep); assay type: biochemical; conditions: for EC50: 2 mM ATP
T2 construct: from tissue; host or cells: testes of homozygous double knock-in mice (Strep pulldown after FLAG depletion, eluted with biotin)
T2 sequence (Q8C0T9 1-471 isoform Q8C0T9-2): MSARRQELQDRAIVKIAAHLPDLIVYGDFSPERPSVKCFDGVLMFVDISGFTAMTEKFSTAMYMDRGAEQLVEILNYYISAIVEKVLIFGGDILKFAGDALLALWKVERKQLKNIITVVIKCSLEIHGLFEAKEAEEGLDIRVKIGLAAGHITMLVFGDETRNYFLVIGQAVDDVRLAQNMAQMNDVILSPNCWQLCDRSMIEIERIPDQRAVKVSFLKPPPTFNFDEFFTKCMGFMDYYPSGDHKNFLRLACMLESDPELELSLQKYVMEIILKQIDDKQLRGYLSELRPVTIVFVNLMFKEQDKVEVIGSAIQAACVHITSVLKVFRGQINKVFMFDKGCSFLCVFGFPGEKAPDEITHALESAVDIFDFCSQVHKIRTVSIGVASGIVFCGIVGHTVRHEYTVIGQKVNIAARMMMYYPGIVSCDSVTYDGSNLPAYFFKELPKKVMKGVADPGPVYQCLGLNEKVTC
Description: as §1

human sACfl = molecular target: T3, human sACfl (Homo sapiens, UniProt Q96PN6); assay: In vitro adenylyl cyclase activity assay (two-column method), heterologously expressed human sACfl (GFP nanobody purified, complexed with Hsp70); assay type: biochemical; conditions: for EC50: 2 mM ATP
T3 construct: Schematic of full-length (sACfl) and truncated (sACt) sAC isoforms; eGFP (C, cleaved yes); His-tag (on eGFP) (C, cleaved yes); PreScission protease site (C); made in house; host or cells: Expi293 cells
T3 sequence (Q96PN6 whole entry, the tested form may be a part, canonical isoform): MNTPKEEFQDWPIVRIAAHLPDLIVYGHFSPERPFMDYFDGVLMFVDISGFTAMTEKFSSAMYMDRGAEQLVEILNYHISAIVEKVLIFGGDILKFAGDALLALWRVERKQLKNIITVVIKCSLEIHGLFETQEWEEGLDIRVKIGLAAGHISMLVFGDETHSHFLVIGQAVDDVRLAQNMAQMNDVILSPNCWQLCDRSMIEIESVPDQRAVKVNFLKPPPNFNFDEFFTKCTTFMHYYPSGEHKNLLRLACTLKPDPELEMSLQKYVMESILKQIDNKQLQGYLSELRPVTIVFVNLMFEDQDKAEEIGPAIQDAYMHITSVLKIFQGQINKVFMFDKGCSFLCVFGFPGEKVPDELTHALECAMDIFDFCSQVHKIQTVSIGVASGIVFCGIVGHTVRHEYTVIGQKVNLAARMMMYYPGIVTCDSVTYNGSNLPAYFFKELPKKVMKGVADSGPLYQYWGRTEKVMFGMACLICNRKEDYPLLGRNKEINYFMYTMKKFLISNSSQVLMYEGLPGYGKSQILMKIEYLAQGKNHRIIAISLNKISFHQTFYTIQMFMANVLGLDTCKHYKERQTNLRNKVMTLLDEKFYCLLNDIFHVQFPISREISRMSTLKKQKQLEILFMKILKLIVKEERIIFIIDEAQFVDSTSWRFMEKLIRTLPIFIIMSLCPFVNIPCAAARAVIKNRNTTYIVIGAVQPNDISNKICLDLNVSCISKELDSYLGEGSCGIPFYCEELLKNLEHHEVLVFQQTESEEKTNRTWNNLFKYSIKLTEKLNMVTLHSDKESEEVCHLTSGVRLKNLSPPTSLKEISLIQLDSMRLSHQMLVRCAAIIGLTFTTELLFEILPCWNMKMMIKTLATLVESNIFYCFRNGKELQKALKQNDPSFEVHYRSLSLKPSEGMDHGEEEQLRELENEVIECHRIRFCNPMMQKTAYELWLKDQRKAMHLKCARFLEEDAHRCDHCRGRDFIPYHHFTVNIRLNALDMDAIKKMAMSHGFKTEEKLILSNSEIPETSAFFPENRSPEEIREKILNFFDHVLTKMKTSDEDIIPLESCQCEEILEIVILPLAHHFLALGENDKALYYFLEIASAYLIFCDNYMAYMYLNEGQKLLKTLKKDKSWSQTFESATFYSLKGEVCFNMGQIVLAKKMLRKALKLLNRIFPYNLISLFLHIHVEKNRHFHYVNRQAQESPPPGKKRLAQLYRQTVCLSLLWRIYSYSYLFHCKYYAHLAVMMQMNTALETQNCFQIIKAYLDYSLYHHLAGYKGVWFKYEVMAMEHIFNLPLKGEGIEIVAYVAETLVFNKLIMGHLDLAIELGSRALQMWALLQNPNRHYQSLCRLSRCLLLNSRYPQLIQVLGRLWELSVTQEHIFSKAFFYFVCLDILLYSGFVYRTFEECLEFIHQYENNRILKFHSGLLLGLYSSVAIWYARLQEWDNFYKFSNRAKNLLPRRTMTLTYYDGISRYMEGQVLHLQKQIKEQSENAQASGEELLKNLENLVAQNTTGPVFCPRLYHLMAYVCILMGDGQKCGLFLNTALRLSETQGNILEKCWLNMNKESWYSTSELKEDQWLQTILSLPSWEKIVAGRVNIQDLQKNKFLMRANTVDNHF
T3 sequence (P0DMV8 whole entry partner, the tested form may be a part, canonical isoform): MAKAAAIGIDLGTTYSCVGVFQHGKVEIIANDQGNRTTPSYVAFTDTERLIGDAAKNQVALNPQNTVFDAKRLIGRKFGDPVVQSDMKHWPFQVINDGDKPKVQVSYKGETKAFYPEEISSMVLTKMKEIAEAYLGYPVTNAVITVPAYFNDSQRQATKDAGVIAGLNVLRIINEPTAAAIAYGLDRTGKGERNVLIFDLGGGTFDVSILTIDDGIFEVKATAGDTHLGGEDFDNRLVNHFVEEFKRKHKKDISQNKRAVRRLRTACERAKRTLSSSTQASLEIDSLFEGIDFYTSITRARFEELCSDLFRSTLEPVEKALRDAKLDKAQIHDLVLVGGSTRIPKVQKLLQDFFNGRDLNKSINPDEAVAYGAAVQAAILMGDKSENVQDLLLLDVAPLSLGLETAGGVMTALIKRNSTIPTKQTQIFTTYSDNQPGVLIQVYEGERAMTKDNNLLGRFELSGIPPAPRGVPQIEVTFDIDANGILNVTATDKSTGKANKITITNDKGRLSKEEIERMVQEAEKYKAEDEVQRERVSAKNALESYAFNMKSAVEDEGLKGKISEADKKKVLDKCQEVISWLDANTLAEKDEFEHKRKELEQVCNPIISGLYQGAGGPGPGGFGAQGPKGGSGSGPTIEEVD

human sACt = molecular target: T4, human sACt (Homo sapiens, UniProt Q96PN6); assay: In vitro adenylyl cyclase activity assay (two-column method), heterologously expressed human sACt (GST); assay type: biochemical; conditions: for EC50: 2 mM ATP
T4 construct: sACt contains only the C1 and C2 catalytic domains; GST; made in house
T4 sequence (Q96PN6 1-469 limits assumed): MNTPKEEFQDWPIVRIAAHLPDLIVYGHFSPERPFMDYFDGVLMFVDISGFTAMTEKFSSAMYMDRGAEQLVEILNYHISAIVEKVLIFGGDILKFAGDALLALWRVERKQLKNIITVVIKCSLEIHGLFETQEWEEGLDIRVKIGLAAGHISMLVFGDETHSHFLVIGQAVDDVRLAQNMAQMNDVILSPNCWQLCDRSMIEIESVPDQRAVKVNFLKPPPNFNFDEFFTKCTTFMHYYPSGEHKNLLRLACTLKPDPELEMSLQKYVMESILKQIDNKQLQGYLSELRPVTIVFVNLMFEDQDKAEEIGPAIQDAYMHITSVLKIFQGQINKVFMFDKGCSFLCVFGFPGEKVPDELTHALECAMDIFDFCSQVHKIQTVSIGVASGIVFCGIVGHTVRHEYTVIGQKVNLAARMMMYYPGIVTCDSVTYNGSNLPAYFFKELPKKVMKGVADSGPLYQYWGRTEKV

sAC = test system: sAC; parameters: method as in PMID 24100033; conditions: read-out: KM of sAC's substrate ATP; cited from earlier work
[2] = molecular target: T5, mouse sAC isoforms (sACfl and sACt) (Mus musculus, UniProt Q8C0T9); assay: In vitro adenylyl cyclase activity assay, one result stated for both mouse sAC isoforms; conditions: read-out: IC50, mouse sAC; text summary (Fig. 5)
T5 sequence (Q8C0T9 1-469 limits assumed): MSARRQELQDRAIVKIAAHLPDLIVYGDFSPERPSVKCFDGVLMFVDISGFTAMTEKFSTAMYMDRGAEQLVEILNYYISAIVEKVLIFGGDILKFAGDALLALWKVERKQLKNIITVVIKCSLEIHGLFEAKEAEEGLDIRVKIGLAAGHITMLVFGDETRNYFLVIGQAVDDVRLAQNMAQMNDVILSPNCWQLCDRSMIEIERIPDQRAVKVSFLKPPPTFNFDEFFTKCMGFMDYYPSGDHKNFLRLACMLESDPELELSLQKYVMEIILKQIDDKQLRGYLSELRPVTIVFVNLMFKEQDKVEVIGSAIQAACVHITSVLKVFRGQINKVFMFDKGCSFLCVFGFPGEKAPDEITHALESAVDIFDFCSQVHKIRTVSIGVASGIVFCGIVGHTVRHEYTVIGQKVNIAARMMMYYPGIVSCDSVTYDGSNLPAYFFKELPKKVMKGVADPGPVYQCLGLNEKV

[3] = 2 mM ATP, 10 mM MgCl2, 10 mM CaCl2, 40 mM NaHCO3
[4] = 10 mM MgCl2, 40 mM NaHCO3, read-out: EC50 for Ca^2+
[5] = in the presence of Mg^2+, Ca^2+ and HCO3^- (20-40 mM MgCl2, 10 mM CaCl2, 40 mM NaHCO3), read-out: KM for substrate Mg^2+-ATP
[6] = 10 mM MgCl2, 10 mM CaCl2, read-out: EC50 for HCO3^-
[7] = 10 mM MgCl2, 10 mM CaCl2, 40 mM NaHCO3

Structure (SMILES): Nc1ccn([C@@H]2O[C@H](COP(=O)(O)OP(=O)(O)OP(=O)(O)O)[C@@H](O)[C@H]2O)c(=O)n1 [CTP]
inhibition of cyclase activity at 10 mM [1, 3]: >50% inhibition at 10 mM

Structure (SMILES): Cc1cn([C@H]2C[C@H](O)[C@@H](COP(=O)(O)OP(=O)(O)OP(=O)(O)O)O2)c(=O)[nH]c1=O [TTP]
inhibition of cyclase activity at 10 mM [1, 3]: ∼50% inhibition at 10 mM

Structure (SMILES): [Ca+2].[Cl-].[Cl-] [Ca^2+]
EC50 (mouse sACfl; [4]): 1300 ± 150 µM
EC50 (mouse sACt; [4]): 1400 ± 110 µM
EC50 (human sACfl; [4]): 1700 ± 150 µM
EC50 (human sACt; [4]): 1700 ± 160 µM

Structure (SMILES): O=P(O)(O)OP(=O)(O)O [Pyrophosphate]
inhibition of cyclase activity at 1 mM ([1]; 1 mM test substance, 2 mM ATP, 10 mM MgCl2, 10 mM CaCl2, 40 mM NaHCO3): ~25%
inhibition of cyclase activity at 10 mM [1, 3]: > 90%
inhibition of cyclase activity (in words) ([1]; at 1 mM): slight inhibition
inhibition of cyclase activity (in words) ([1]; at concentrations >10 mM): fully inhibited

Structure (SMILES): O=c1ccn([C@@H]2O[C@H](COP(=O)(O)OP(=O)(O)OP(=O)(O)O)[C@@H](O)[C@H]2O)c(=O)[nH]1 [UTP]
inhibition of cyclase activity at 10 mM [1, 3]: ∼50% inhibition at 10 mM

Structure (SMILES): O=C(O)O [HCO3^–]
EC50 (mouse sACfl; [6]): 21000 ± 1900 µM
EC50 (mouse sACt; [6]): 19000 ± 1600 µM
EC50 (human sACfl; [6]): 14000 ± 1200 µM
EC50 (human sACt; [6]): 14000 ± 1000 µM

Structure (SMILES): Nc1nc(Cl)cc(-c2nn(C(F)F)cc2Cc2ccccc2OCCN2CCOC[C@H]2CO)n1 [TDI-11861]
IC50 (mouse sACfl; [7]): 0.0224 ± 0.0093 µM
IC50 (mouse sACt; [7]): 0.0211 ± 0.0045 µM
IC50 [2]: ~0.021 µM

The next lines start with results.

inhibition of cyclase activity at 10 mM [1, 3]: ∼75% inhibition at 10 mM
inhibition of cyclase activity (in words) ([1]; at 10 mM): some inhibition
Structure (SMILES): Nc1ncnc2c1ncn2[C@@H]1O[C@H](COP(=O)(O)OP(=O)(O)O)[C@@H](O)[C@H]1O [ADP]

inhibition of cyclase activity at 10 mM [1, 3]: ∼50% inhibition at 10 mM
Structure (SMILES): Nc1nc2c(ncn2[C@@H]2O[C@H](COP(=O)(O)OP(=O)(O)OP(=O)(O)O)[C@@H](O)[C@H]2O)c(=O)[nH]1 [GTP]

inhibition of cyclase activity at 10 mM [1, 3]: ∼75% inhibition at 10 mM
inhibition of cyclase activity (in words) ([1]; at 10 mM): some inhibition
Structure (SMILES): Nc1nc2c(ncn2[C@@H]2O[C@H](COP(=O)(O)OP(=O)(O)O)[C@@H](O)[C@H]2O)c(=O)[nH]1 [GDP]

Km (mouse sACfl; [5]): 2200 ± 390 µM
Km (mouse sACt; [5]): 2700 ± 250 µM
Km (human sACfl; [5]): 2200 ± 300 µM
Km (human sACt; [5]): 1800 ± 280 µM
Structure (SMILES): Nc1ncnc2c1ncn2[C@@H]1O[C@H](COP(=O)(O)OP(=O)(O)OP(=O)(O)O)[C@@H](O)[C@H]1O [ATP]
Km (sAC): ~2000 µM

inhibition of cyclase activity at 10 mM [1, 3]: >50% inhibition at 10 mM
inhibition of cyclase activity (in words) ([1]; at 10 mM): some inhibition
Structure (SMILES): Nc1ncnc2c1ncn2[C@@H]1O[C@H](CO)[C@@H](O)[C@H]1O [Adenosine]

inhibition of cyclase activity at 10 mM [1, 3]: ∼50% inhibition at 10 mM
Structure (SMILES): O=c1[nH]cnc2c1ncn2[C@@H]1O[C@H](COP(=O)(O)OP(=O)(O)OP(=O)(O)O)[C@@H](O)[C@H]1O [ITP]

inhibition of cyclase activity at 10 mM [1, 3]: No inhibition at 10 mM
inhibition of cyclase activity (in words) ([1]; at concentrations up to 10 mM): no inhibition
Structure (SMILES): Nc1ncnc2c1ncn2[C@@H]1O[C@H](COP(=O)(O)O)[C@@H](O)[C@H]1O [AMP]

inhibition of cyclase activity at 10 mM [1, 3]: No inhibition at 10 mM
inhibition of cyclase activity (in words) ([1]; at concentrations up to 10 mM): no inhibition
Structure (SMILES): Nc1nc2c(ncn2[C@@H]2O[C@H](COP(=O)(O)O)[C@@H](O)[C@H]2O)c(=O)[nH]1 [GMP]
